This note sets out measurements from ChEMBL document CHEMBL1275380, “Studies toward the structural optimization of novel thiazolylhydrazone-based potent antitrypanosomal agents” (Bioorg Med Chem, 2010).

Activity calls are given as the source filed them. The rule behind the calls is not given here.

Chain of Cruzipain (P25779 whole entry): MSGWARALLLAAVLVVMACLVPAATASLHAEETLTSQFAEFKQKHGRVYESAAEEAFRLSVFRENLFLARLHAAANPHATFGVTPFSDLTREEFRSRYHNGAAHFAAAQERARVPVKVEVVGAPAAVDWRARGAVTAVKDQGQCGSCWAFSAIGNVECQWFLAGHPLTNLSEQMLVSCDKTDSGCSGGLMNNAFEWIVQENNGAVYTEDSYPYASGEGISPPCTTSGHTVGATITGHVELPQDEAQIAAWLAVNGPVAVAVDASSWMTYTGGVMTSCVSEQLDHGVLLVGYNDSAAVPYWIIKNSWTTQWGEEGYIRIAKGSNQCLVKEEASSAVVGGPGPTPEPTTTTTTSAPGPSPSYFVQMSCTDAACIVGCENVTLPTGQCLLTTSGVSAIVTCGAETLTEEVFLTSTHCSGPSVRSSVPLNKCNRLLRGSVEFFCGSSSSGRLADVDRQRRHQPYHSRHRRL

In the first data set the test system is Trypanosoma cruzi. In words: Antitrypanosomal activity against trypomastigotes of Trypanosoma cruzi Y assessed as viability after 24 hrs by trypan blue exclusion assay. The class given is functional, organism-based.
Settings: not given
Broadly, the IC50 is the concentration at which inhibition is half-maximal. Take `CC1S/C(=N/N=C/CCSc2ccccc2)NC1=S` (stereo unspecified): the half-inhibitory concentration (IC50) amounted to 2.3 µM.
Take `CC/C(=N\N=C(\N)S)c1cccc(Br)c1`: the IC50 was 11.1 µM.
Regarding `O=C1CS/C(=N/N=C/CSc2ccc(Cl)cc2)N1`, the IC50 amounted to 82.4 µM.
As for `CC1S/C(=N/N=C/CSc2ccccc2)NC1=O` (stereo unspecified), the IC50 was 44.2 µM.
On to `NC(=S)N/N=C/C=C/c1ccccc1`, for which the concentration for half-maximal inhibition (IC50) turned out to be 7.4 µM.
Still for that read-out and setting: in the case of `CCC1S/C(=N/N=C(\C)CSc2ccc(C)cc2)NC1=O` (stereo unspecified) it was 76.9 µM; in that of `Cc1ccc(SC/C=N/N=C2\NC(=O)C(C)S2)cc1` (stereo unspecified), 84.8 µM.
On the same count and under the same terms, next, `C/C(=N\N=C(\N)S)c1ccc(Cl)c(Cl)c1`: 39.5 µM.
The same measure, in the same setting: in the case of `CC1S/C(=N/N=C/CCSc2ccccc2)NC1=O` (stereo unspecified) it was 10 µM.
Regarding `CCC1S/C(=N/N=C(\C)CSc2ccc(S)cc2)NC1=O` (stereo unspecified), the IC50 is 54.6 µM.

In a further data set the target is Cruzipain (Trypanosoma cruzi) (UniProt P25779). In words: Inhibition of Trypanosoma cruzi cruzaine at 100 uM pre-incubated for 10 mins.
Chain of Cruzipain (Trypanosoma cruzi) (P25779 123-467 limits assumed): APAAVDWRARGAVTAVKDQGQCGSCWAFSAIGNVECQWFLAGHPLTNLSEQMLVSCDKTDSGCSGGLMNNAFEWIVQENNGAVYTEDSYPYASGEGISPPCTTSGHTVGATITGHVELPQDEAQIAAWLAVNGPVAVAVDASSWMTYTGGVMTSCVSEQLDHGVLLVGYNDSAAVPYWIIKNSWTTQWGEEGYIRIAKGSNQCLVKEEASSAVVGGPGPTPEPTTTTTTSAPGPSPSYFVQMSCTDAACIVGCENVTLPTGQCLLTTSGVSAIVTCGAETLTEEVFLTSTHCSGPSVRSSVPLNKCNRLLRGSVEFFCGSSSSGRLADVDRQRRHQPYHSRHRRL
Settings: not given
By inhibition is commonly meant the percentage by which the read-out fell short of the control. `CC1S/C(=N/N=C/CCSc2ccccc2)NC1=S` (stereo unspecified) yielded an inhibition of 92%.
Same read-out and setting: in the case of `CC/C(=N\N=C(\N)S)c1cccc(Br)c1` it was 92%; in that of `O=C1CS/C(=N/N=C/CSc2ccc(Cl)cc2)N1`, 11%; in that of `CC1S/C(=N/N=C/CSc2ccccc2)NC1=O` (stereo unspecified), 5%.
On the same count and under the same terms, in the case of `NC(=S)N/N=C/C=C/c1ccccc1` it was 35%; in that of `CCC1S/C(=N/N=C(\C)CSc2ccc(C)cc2)NC1=O` (stereo unspecified), 22%; in that of `Cc1ccc(SC/C=N/N=C2\NC(=O)C(C)S2)cc1` (stereo unspecified), 80%.
On the same count and under the same terms, next, `C/C(=N\N=C(\N)S)c1ccc(Cl)c(Cl)c1`: 96%.
The compound `CC1S/C(=N/N=C/CCSc2ccccc2)NC1=O` (stereo unspecified) registered an inhibition of 93%.
Still for that read-out and setting: in the case of `CCC1S/C(=N/N=C(\C)CSc2ccc(S)cc2)NC1=O` (stereo unspecified) it was 11%.

A further data set addresses Cruzipain (Trypanosoma cruzi, UniProt P25779). In words: Inhibition of Trypanosoma cruzi cruzaine pre-incubated for 10 mins.
Settings: not given
`CC1S/C(=N/N=C/CCSc2ccccc2)NC1=S` (stereo unspecified) showed a concentration for half-maximal inhibition (IC50) of 60 nM.
On the same count and under the same terms, next, `Cc1ccc(SC/C=N/N=C2\NC(=O)C(C)S2)cc1` (stereo unspecified): 20400 nM.
In turn, `C/C(=N\N=C(\N)S)c1ccc(Cl)c(Cl)c1` displayed an IC50 of 100 nM.
Same read-out and setting: in the case of `CC1S/C(=N/N=C/CCSc2ccccc2)NC1=O` (stereo unspecified) it was 400 nM.

For the next data set, the system named is Trypanosoma cruzi. In words: Antitrypanosomal activity against epimastigotes of Trypanosoma cruzi Y assessed as viability at 40 uM after 11 days by trypan blue exclusion assay. The class given is functional. Particulars: 264 h.
Regarding `O=C1CS/C(=N/N=C/CSc2ccc(Cl)cc2)N1`, the inhibition at 40 µM was determined as 8%.
On the same count and under the same terms, next, `CC1S/C(=N/N=C/CSc2ccccc2)NC1=O` (stereo unspecified): 4%.
On the same count and under the same terms, in the case of `NC(=S)N/N=C/C=C/c1ccccc1` it was 99%.
With `CCC1S/C(=N/N=C(\C)CSc2ccc(C)cc2)NC1=O` (stereo unspecified), the inhibition at 40 µM is 40%.
`Cc1ccc(SC/C=N/N=C2\NC(=O)C(C)S2)cc1` (stereo unspecified): the inhibition at 40 µM is 97%.
On the same count and under the same terms, next, `CC1S/C(=N/N=C/CCSc2ccccc2)NC1=O` (stereo unspecified): 100%.
Same read-out and setting: in the case of `CCC1S/C(=N/N=C(\C)CSc2ccc(S)cc2)NC1=O` (stereo unspecified) it was 41%.

The subject of another data set is Trypanosoma cruzi. Put plainly: Antitrypanosomal activity against epimastigotes of Trypanosoma cruzi Y assessed as viability at 40 uM after 15 hrs by trypan blue exclusion assay. The class given is functional.
Settings: not given
On to `Cc1ccc(SC/C=N/N=C2\NC(=O)C(C)S2)cc1` (stereo unspecified), for which the inhibition at 40 µM worked out at 85%.
With `CC1S/C(=N/N=C/CCSc2ccccc2)NC1=O` (stereo unspecified), the inhibition at 40 µM stood at 75%.

The next data set addresses Cruzipain (Trypanosoma cruzi) (UniProt P25779). In words: Inhibition of Trypanosoma cruzi cruzaine without pre-incubation. To be noted: TDE = time-dependent effect.
Take `CC/C(=N\N=C(\N)S)c1cccc(Br)c1`: the inhibition entry is “tde”.
Same read-out and setting: next, `C/C(=N\N=C(\N)S)c1ccc(Cl)c(Cl)c1`: “tde”.

The test system of a further data set is Trypanosoma cruzi. In words: Antitrypanosomal activity against epimastigotes of Trypanosoma cruzi Y assessed as viability after 11 days by trypan blue exclusion assay. The class given is functional, organism-based. Particulars: 264 h.
On to `CC1S/C(=N/N=C/CCSc2ccccc2)NC1=S` (stereo unspecified), for which the IC50 was 8.1 µM.
The same measure, in the same setting: in the case of `CC/C(=N\N=C(\N)S)c1cccc(Br)c1` it was 15.4 µM; in that of `O=C1CS/C(=N/N=C/CSc2ccc(Cl)cc2)N1`, 43.9 µM; in that of `CC1S/C(=N/N=C/CSc2ccccc2)NC1=O` (stereo unspecified), 167 µM.
The same measure, in the same setting: in the case of `NC(=S)N/N=C/C=C/c1ccccc1` it was 7.3 µM; in that of `CCC1S/C(=N/N=C(\C)CSc2ccc(C)cc2)NC1=O` (stereo unspecified), 45.1 µM; in that of `Cc1ccc(SC/C=N/N=C2\NC(=O)C(C)S2)cc1` (stereo unspecified), 6.7 µM.
On the same count and under the same terms, in the case of `C/C(=N\N=C(\N)S)c1ccc(Cl)c(Cl)c1` it was 8.5 µM.
In the case of `CC1S/C(=N/N=C/CCSc2ccccc2)NC1=O` (stereo unspecified), the IC50 worked out at 2.9 µM.
As for `CCC1S/C(=N/N=C(\C)CSc2ccc(S)cc2)NC1=O` (stereo unspecified), the IC50 was determined as 40.8 µM.

The subject of a further data set is Trypanosoma cruzi. Put plainly: Antitrypanosomal activity against epimastigotes of Trypanosoma cruzi Y assessed as viability at 40 uM after 7 days by trypan blue exclusion assay. The class given is functional. To be noted: 168 h.
For `CC1S/C(=N/N=C/CCSc2ccccc2)NC1=S` (stereo unspecified), the inhibition at 40 µM worked out at 94%.
Still for that read-out and setting: next, `Cc1ccc(SC/C=N/N=C2\NC(=O)C(C)S2)cc1` (stereo unspecified): 97%; `CC1S/C(=N/N=C/CCSc2ccccc2)NC1=O` (stereo unspecified): 100%.

The next data set deals with Mus musculus. Put plainly: Toxicity in Swiss mouse assessed as mortality at 100 mg/kg, ip after 72 hrs. The class given is organism-based. The arrangement: dose 100 mg/kg, route intraperitoneal. Particulars: in vivo.
Regarding `CC1S/C(=N/N=C/CCSc2ccccc2)NC1=S` (stereo unspecified), the Activity entry was “Toxic”.
Turning to `Cc1ccc(SC/C=N/N=C2\NC(=O)C(C)S2)cc1` (stereo unspecified), the Activity result is listed as “Non-toxic”.
Same read-out and setting: in the case of `CC1S/C(=N/N=C/CCSc2ccccc2)NC1=O` (stereo unspecified) it was “Non-toxic”.

In a further data set the target is Cruzipain (Trypanosoma cruzi) (UniProt P25779). In words: Inhibition of Trypanosoma cruzi cruzaine in presence of 0.01% Triton X-100.
Settings: not given
`CC1S/C(=N/N=C/CCSc2ccccc2)NC1=S` (stereo unspecified): the inhibition entry was “Active”.
On the same count and under the same terms, next, `O=C1CS/C(=N/N=C/CSc2ccc(Cl)cc2)N1`: “Active”; `CC1S/C(=N/N=C/CSc2ccccc2)NC1=O` (stereo unspecified): “Active”.
The same measure, in the same setting: next, `NC(=S)N/N=C/C=C/c1ccccc1`: “Active”.
On the same count and under the same terms, in the case of `CCC1S/C(=N/N=C(\C)CSc2ccc(C)cc2)NC1=O` (stereo unspecified) it was “Active”; in that of `Cc1ccc(SC/C=N/N=C2\NC(=O)C(C)S2)cc1` (stereo unspecified), “Active”; in that of `CC1S/C(=N/N=C/CCSc2ccccc2)NC1=O` (stereo unspecified), “Active”.
With `CCC1S/C(=N/N=C(\C)CSc2ccc(S)cc2)NC1=O` (stereo unspecified), the inhibition result was “Active”.

System in a further data set: not listed separately
Put plainly: Cytotoxicity against BALB/c mouse Splenocyte assessed as non-cytotoxic concentration after 24 hrs by [3H]-thymidine incorporation assay relative to control. The class given is cell-based. Particulars: splenocytes, read-out: Activity.
On to `CC1S/C(=N/N=C/CCSc2ccccc2)NC1=S` (stereo unspecified), for which the MNTC at 24 h turned out to be 1 µg/mL.
On the same count and under the same terms, next, `O=C1CS/C(=N/N=C/CSc2ccc(Cl)cc2)N1`: above 100 µg/mL; `CC1S/C(=N/N=C/CSc2ccccc2)NC1=O` (stereo unspecified): above 100 µg/mL.
Same read-out and setting: in the case of `NC(=S)N/N=C/C=C/c1ccccc1` it was below 1 µg/mL; in that of `CCC1S/C(=N/N=C(\C)CSc2ccc(C)cc2)NC1=O` (stereo unspecified), above 100 µg/mL; in that of `Cc1ccc(SC/C=N/N=C2\NC(=O)C(C)S2)cc1` (stereo unspecified), above 100 µg/mL.
The same measure, in the same setting: next, `C/C(=N\N=C(\N)S)c1ccc(Cl)c(Cl)c1`: 1 µg/mL; `CC1S/C(=N/N=C/CCSc2ccccc2)NC1=O` (stereo unspecified): above 100 µg/mL.
For the compound `CCC1S/C(=N/N=C(\C)CSc2ccc(S)cc2)NC1=O` (stereo unspecified), the MNTC at 24 h was above 100 µg/mL.

The target of a further data set is Cruzipain (Trypanosoma cruzi) (UniProt P25779). Put plainly: Inhibition of Trypanosoma cruzi cruzaine in absence of 0.01% Triton X-100.
Settings: not given
`CC1S/C(=N/N=C/CCSc2ccccc2)NC1=S` (stereo unspecified): the inhibition entry was “Active”.
On the same count and under the same terms, next, `O=C1CS/C(=N/N=C/CSc2ccc(Cl)cc2)N1`: “Active”; `CC1S/C(=N/N=C/CSc2ccccc2)NC1=O` (stereo unspecified): “Active”; `NC(=S)N/N=C/C=C/c1ccccc1`: “Active”.
The same measure, in the same setting: in the case of `CCC1S/C(=N/N=C(\C)CSc2ccc(C)cc2)NC1=O` (stereo unspecified) it was “Active”.
On the same count and under the same terms, next, `Cc1ccc(SC/C=N/N=C2\NC(=O)C(C)S2)cc1` (stereo unspecified): “Active”; `CC1S/C(=N/N=C/CCSc2ccccc2)NC1=O` (stereo unspecified): “Active”; `CCC1S/C(=N/N=C(\C)CSc2ccc(S)cc2)NC1=O` (stereo unspecified): “Active”.
